# According to publication PMC9882606, “Rationally designed inhibitors of the Musashi protein-RNA interaction by hotspot mimicry” (Research Square, 2023):
# How the values were obtained:
# MSI2 = MSI2 (Homo sapiens, UniProt Q96DH6); assay: MS2-TRAP aptamer pull-down reporter assay in HEK293 cells; assay type: cell-based; set-up: HEK293 cells (with a high baseline MSI2 expression); endogenous in cells; host or cells: HEK293; details: HEK293, 24 h treatment
# Excerpt: Figure 5: Characterization of R12–8–44–3 in a reporter cell line. […] As a positive control, Ro 08–2750 (aka “Ro”) is also included in these studies. (B) Schematic of reporter assay. HEK293 cells are transfected with a plasmid encoding an arbitrary gene (Luc) with UAG repeats (to recruit MSI2) and MS2 repeats (for pulldown) appended to its 3’ UTR. The same vector also includes FLAG-labeled MS2-BP. Upon anti-FLAG immunoprecipitation (IP), the FLAG-labeled MS2-BP allows purification of the Luc mRNA along with any associated factors. (C) Prior to IP, cells express Luc mRNA to a similar extent irrespective of whether they were treated with DMSO, R12-neg, R12–8–44–3, or Ro. (D) Prior to IP (“input”), MSI2 is detected in all samples to a similar extent (as is KU-86 loading control). After pulldown of Luc mRNA, MSI2 is found associated with the mRNA in cells treated with DMSO or R12-neg, but not in cells that had been treated with R12–8–44–3 or Ro. Representative image is shown; quantification is plotted as the average of 2 independent experiments ± S.E.M. Statistical analysis was performed using unpaired two tailed t-test, with * indicating p<0.05. Uncropped Western blots from this experiment are provided as Figure S8.
# To determine whether inhibition of MSI1/MSI2 by R12–8–44–3 would apply in a cellular context, we adapted an aptamer pull-down reporter assay that we previously used to validate candidate Musashi target genes. Briefly, our approach is a variation of the MS2-TRAP (MS2-tagged RNA affinity purification) method, which uses bacteriophage protein MS2-BP to extract from cells any factors that associate with RNAs containing a specific stem-loop structure (MS2) from the phage genome. Here, we designed an mRNA construct that would include a series of MS2 hairpins and also a MSI2 recognition sequence. We transfected this construct into cells that also express FLAG-tagged MS2-BP (a protein unrelated to MSI2). By affinity purification using the FLAG tag, proteins bound to the designed mRNA can be extracted from cells.
# To test for inhibition of MSI2 in cells, we transfected HEK293 cells (with a high baseline MSI2 expression), with the pMS2-LUC-3’UTR from our previous studies. This vector appends onto the 3’UTR of an arbitrary gene (in this case luciferase) two key elements: UAG-motifs comprising a MSI2 recognition sequence, and a series of five MS2 hairpins. The same vector also encodes the FLAG-MS2-BP fusion needed for affinity purification (Figure 5b). Cells were then treated with each compound of interest for 24 h, and then the cells were subsequently harvested and used for anti-FLAG immunoprecipitation. […] Using qPCR we evaluated the amount of Luc mRNA in cells treated with R12–8–44–3, R12-neg, or Ro, and found this to be unchanged (Figure 5c).
# [1] = test system: EGFR, SMAD3, and MSI2 protein levels; assay: Immunoblot of MSI2 downstream targets in PC9 cells; assay type: cell-based, human; details: PC9, 5 μM or 20 μM, 48 hours
# Method: (§1) Figure 7: Cellular characterization of MSI2 inhibition by R12–8–44–3. (A) Quantification of mRNA immunoprecipitation (RIP) results. Cells were treated with 10 μM of the indicated compounds for 8 hours. After immunoprecipitation with anti-MSI2, mRNA targets were quantified. The amount of each target mRNA in the pulldown was calculated relative to the input, and results from all targets were normalized to PTP4A1. Treating cells with R12–8–44–3 disrupted the interaction with all four cognate mRNAs (PTP4A, SMAD3, EGFR, and MSI2). Data are presented as the average ± S.E.M. from at least 3 independent replicates. […] Cells were treated with indicated compounds at two concentrations (5 μM and 20 μM) for 48 hours, then protein levels of relevant MSI2 targets were determined (EGFR, SMAD3, and MSI2). One representative image is shown; quantification is presented as the average ± S.E.M. from at least 3 independent replicates, normalized first to beta-actin and then to DMSO-treated cells. (C) Cell viability dose-response quantified by CellTiter-Blue after 3 days (left) and cell proliferation with 10μM of compounds quantified by clonogenic assay after 7 days (right). […] (D) Cell viability quantified by clonogenic assay of PC9 cell line after 7-day treatment with 2 nM osimertinib (osi alone), osimertinib with 10 μM R12–8–44–3, or osimertinib with 10 μM R12-neg. […]
# PC9 cells [2] = assay: Clonogenic assay, PC9; assay type: cell-based, human; details: PC9, 10 μM, 7 days
# Method: as §1
# PC9 cells [3] = assay: CellTiter-Blue cell viability, PC9; assay type: cell-based, human; details: PC9, 3 days, dose-response
# Method: as §1
# Chain of MSI2 (Q96DH6 whole entry): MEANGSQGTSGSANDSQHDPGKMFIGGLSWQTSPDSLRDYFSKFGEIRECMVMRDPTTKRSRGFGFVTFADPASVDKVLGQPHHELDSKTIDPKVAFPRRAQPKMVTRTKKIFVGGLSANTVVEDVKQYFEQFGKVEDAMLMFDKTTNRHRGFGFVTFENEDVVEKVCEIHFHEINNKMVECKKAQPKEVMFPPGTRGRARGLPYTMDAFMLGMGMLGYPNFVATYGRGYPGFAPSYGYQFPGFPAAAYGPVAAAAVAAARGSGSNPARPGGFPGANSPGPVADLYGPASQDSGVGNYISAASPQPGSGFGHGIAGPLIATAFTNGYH
smiles,measurement,setting,value
Cc1cc(C(=O)OCc2nc(N)c3c(C)c(C)sc3n2)c(N)cc1F [R12–8–44–3],MSI2 purified with reporter mRNA (anti-FLAG pulldown),MSI2,much less MSI2 is purified
same,total amount of MSI2 in cells,MSI2; input prior to IP,unaffected
same,amount of Luc mRNA in cells (qPCR),MSI2; prior to IP,unchanged
same,SMAD3 and EGFR protein levels,[1],phenocopied the effect of MSI2 depletion on these two targets
same,amount of MSI2 protein,[1],without changing the amount of MSI2
same,cell proliferation (clonogenic assay),PC9 cells [2],no effect on cell growth/survival
same,cell viability (CellTiter-Blue),PC9 cells [3],no effect on cell growth/survival
